Data from patent US20200165257A1, “INHIBITORS OF PHOSPHOINOSITIDE 3-KINASE AND HISTONE DEACETYLASE FOR TREATMENT OF CANCER” (THE UNITED STATES OF AMERICA, AS REPRESENTED BY THE …, priority 2017, published 2020).

Tests used:
Type in all cases: biochemical
HDAC6 = molecular target: T1, HDAC6 (Homo sapiens, UniProt Q9UBN7); assay: HDAC Fluorescent Activity Assay; settings: for IC50: symbols ++ / +, read-out: HDAC6 Inhibition Activity (IC50 class); for inhibition at 1 µM: symbols ** / *, read-out: HDAC6 Inhibition Activity (% Inhibition class)
T1 sequence (Q9UBN7 1-1215): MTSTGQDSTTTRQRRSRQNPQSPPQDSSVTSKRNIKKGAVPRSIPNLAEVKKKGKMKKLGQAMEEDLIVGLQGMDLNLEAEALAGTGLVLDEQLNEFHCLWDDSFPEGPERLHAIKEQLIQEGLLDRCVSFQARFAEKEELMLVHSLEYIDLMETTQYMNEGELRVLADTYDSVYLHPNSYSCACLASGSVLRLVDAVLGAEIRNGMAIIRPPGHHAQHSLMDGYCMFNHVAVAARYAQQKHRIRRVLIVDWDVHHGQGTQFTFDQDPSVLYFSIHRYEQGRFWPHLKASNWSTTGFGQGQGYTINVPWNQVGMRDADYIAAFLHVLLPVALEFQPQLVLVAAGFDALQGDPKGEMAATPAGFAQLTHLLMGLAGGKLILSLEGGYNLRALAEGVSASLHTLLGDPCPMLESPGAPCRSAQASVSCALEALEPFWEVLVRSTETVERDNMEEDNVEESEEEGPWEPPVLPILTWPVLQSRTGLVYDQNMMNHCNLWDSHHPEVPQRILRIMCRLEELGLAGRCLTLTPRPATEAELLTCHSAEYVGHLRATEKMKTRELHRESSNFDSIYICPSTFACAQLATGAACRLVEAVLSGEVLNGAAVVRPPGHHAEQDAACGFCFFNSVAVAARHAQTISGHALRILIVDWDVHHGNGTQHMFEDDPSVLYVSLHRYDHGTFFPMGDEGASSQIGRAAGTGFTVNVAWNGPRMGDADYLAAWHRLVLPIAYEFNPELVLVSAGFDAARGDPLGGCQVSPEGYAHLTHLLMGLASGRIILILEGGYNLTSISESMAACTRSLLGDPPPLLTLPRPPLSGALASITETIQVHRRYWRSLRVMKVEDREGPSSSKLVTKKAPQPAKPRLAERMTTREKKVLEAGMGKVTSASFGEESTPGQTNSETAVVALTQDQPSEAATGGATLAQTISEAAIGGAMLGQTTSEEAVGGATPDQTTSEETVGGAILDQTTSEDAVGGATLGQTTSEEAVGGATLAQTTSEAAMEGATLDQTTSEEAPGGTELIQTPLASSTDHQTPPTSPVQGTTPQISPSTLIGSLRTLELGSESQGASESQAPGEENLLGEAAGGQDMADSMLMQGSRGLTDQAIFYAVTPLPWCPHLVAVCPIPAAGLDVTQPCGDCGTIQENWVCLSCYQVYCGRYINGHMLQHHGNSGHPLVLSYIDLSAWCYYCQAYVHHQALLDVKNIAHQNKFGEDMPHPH
Description: This protocol is to determine the IC50s or percentage of inhibition values of the test compound against HDACs.
The HDAC Fluorescent Activity Assay is based on the unique Fluorogenic Substrate and Developer combination. […] First, the Fluorogenic Substrate, which comprises an acetylated lysine side chain, is incubated with a purified HDAC enzyme. Deacetylation of the substrate sensitizes the substrate so that, in the second step, treatment with the Developer produces a fluorophore.
Testing compounds were dissolved in 100% DMSO to specific concentration. […]
1. Deliver 2× enzyme in wells of reaction plate except No Enzyme control wells. Add buffer in No En wells.
2. Deliver compounds in 100% DMSO into the enzyme mixture by Acoustic technology (Echo550; nanoliter range). Spin down and pre-incubation.
3. Deliver 2× Substrate Mixture (Fluorogenic HDAC Substrate and co-factor if applicable) in all reaction wells to initiate the reaction. Spin and shake.
4. Incubate for 1-2 hr at 30° C. with seal.
5. Add Developer with Trichostatin A (or TMP269) to stop the reaction and to generate fluorescent color.
6. Fluorescence was read (excitatory, 360; emission, 460) using the EnVision Multilabel
7. Take endpoint reading for analysis after the development reaches plateau.
The percentages of enzyme activity (relative to DMSO controls) and IC50 values were calculated using the GraphPad Prism 4 program based on a sigmoidal dose-response equation.

PI3Kδ = PI3Kδ (Homo sapiens, UniProt O00329); assay: PI3Kδ kinase assay (HTRF); settings: for IC50: symbols ++ / +, read-out: PI3Kδ Inhibition Activity (IC50 class); for inhibition at 1 µM: symbols ** / *, read-out: PI3Kδ Inhibition Activity (% Inhibition class)
Description: (§1) The PIP3 product is detected by displacement of biotin-PIP3 from an energy transfer complex consisting of Europium labeled anti-GST monoclonal antibody, a GST-tagged pleckstrin homology (PH) domain, biotinylated PIP3 and Streptavidin-Allophycocyanin (APC). […] The PIP3 product formed by PI 3-Kinase(h) activity displaces biotin-PIP3 from the complex resulting in a loss of energy transfer, and thus, a decrease in signal.
(§2) First, the kinase reaction with PIP2 substrate is carried out in the presence of ATP, and the reaction is quenched with stop Solution, and then, finally detect by adding Detection Mixture followed by incubation.
(§3) HEPES 50 mM (pH7.0), NaN3 0.02%, BSA 0.01%, Orthovanadate 0.1 mM, 1% DMSO.
(§4) Detection buffer: HEPES 10 mM (pH7.0), BSA 0.02%, KF 0.16 M, EDTA 4 mM.
(§5) 10 μM PIP2 substrate (PI(4,5)P2)
(§6) 10 μM ATP under standard conditions
(§7) 1. Prepare substrate in freshly prepared Reaction Buffer.
(§8) 2. Deliver kinase into the substrate solution and gently mix.
(§9) 3. Deliver compounds in 100% DMSO into the kinase reaction mixture by Acoustic technology (Echo550; nanoliter range), incubate for 10 min at room temperature.
(§10) 4. Deliver ATP into the reaction mixture to initiate the reaction.
(§11) 5. Incubate for 30 min at 30° C.
(§12) 6. Quench the reaction with Stop Solution.
(§13) 7. Add Detection Mixture, and incubate for overnight.
(§14) The emission ratio is converted into μM PIP3 production based on PIP3 standard curves.
(§15) The nonlinear regression to obtain the standard curve and IC50 values are performed using Graphpad Prism software.

PI3Kγ = PI3Kγ (Homo sapiens, UniProt P48736); assay: PI3Kγ kinase assay (HTRF)
Description: as §1, §2, §3, §4, §5, §6, §7, §8, §9, §10, §11, §12, §13, §14, §15

PI3Kα = PI3Kα (Homo sapiens, UniProt P42336); assay: PI3Kα kinase assay (HTRF)
Description: as §1, §2, §3, §4, §5, §6, §7, §8, §9, §10, §11, §12, §13, §14, §15

PI3Kβ = PI3Kβ (Homo sapiens, UniProt P42338); assay: PI3Kβ kinase assay (HTRF)
Description: as §1, §2, §3, §4, §5, §6, §7, §8, §9, §10, §11, §12, §13, §14, §15

Sequence of PI3Kδ (O00329 whole entry): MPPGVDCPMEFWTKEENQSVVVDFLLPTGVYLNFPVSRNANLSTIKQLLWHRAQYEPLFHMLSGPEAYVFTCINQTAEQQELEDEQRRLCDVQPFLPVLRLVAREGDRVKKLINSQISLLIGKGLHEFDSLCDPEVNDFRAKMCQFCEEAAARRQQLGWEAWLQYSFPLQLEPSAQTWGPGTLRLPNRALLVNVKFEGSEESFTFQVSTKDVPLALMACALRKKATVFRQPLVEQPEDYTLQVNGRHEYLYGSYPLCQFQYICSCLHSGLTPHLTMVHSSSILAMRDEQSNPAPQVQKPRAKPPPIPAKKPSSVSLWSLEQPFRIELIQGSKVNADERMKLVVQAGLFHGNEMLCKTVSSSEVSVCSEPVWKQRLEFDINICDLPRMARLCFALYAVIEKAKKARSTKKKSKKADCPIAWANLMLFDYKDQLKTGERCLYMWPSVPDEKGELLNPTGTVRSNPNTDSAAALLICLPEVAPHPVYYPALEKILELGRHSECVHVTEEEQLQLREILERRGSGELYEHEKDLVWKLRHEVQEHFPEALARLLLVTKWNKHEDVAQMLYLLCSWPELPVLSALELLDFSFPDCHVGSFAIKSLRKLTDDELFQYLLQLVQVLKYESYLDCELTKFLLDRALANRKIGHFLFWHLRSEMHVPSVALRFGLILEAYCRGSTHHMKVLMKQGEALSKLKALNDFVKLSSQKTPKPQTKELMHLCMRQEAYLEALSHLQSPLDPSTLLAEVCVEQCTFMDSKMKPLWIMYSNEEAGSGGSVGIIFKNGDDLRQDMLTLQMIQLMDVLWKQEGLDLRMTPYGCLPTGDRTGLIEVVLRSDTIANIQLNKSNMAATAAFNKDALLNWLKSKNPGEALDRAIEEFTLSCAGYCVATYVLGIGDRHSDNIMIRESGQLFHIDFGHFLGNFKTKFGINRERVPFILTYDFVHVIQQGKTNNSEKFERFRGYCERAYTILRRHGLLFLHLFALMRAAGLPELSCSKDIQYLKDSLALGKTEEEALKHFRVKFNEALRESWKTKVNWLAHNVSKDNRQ
Sequence of PI3Kδ (P27986 whole entry partner): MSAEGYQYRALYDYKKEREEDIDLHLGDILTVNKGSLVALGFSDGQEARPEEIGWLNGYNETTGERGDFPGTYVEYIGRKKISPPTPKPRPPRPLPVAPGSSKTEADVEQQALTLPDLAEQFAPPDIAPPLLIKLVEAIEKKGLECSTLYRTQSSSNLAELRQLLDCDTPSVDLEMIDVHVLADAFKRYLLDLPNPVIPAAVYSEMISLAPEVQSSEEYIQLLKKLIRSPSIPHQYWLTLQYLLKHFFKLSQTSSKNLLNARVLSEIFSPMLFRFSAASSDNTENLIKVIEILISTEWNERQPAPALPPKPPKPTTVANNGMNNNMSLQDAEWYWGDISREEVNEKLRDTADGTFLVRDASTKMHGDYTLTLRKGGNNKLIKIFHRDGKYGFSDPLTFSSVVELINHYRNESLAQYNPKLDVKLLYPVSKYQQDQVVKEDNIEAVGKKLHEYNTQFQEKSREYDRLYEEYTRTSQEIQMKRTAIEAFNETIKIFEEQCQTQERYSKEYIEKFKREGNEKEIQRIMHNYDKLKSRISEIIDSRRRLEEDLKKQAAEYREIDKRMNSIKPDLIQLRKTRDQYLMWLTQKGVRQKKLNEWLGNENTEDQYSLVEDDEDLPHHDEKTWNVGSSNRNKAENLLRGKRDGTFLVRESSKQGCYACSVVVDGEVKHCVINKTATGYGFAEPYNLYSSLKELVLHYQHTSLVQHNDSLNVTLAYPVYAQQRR
Sequence of PI3Kβ (P42338 whole entry): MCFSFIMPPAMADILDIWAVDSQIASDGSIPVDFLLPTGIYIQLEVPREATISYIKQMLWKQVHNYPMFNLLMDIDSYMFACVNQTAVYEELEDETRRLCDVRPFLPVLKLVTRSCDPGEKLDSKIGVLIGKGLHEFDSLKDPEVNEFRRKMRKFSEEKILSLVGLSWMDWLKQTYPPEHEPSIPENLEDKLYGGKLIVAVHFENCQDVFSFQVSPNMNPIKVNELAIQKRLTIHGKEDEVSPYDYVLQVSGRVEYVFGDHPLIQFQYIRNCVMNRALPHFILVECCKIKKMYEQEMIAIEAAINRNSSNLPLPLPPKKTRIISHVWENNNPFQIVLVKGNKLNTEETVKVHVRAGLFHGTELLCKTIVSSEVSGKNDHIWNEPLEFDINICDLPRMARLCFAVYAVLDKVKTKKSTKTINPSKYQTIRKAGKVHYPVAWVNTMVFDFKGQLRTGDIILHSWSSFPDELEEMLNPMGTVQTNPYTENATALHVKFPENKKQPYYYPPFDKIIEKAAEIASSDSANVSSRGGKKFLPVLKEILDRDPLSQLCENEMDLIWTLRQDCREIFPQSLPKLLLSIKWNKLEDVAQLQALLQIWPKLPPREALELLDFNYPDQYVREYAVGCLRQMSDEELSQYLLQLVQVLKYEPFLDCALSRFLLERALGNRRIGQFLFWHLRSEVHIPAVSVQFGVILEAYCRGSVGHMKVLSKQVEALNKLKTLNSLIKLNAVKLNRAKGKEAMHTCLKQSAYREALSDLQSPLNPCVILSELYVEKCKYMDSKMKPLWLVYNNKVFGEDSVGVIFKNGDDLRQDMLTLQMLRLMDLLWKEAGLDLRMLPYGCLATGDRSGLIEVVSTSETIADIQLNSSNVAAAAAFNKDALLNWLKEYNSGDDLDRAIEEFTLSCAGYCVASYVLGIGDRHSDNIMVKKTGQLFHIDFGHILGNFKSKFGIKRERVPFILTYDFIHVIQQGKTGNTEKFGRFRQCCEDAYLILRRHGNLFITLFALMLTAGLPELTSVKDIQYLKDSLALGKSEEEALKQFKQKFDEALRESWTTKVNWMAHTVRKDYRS
Sequence of PI3Kβ (P27986 whole entry partner): as the sequence (P27986 whole entry partner) above
Sequence of PI3Kγ (P48736 whole entry): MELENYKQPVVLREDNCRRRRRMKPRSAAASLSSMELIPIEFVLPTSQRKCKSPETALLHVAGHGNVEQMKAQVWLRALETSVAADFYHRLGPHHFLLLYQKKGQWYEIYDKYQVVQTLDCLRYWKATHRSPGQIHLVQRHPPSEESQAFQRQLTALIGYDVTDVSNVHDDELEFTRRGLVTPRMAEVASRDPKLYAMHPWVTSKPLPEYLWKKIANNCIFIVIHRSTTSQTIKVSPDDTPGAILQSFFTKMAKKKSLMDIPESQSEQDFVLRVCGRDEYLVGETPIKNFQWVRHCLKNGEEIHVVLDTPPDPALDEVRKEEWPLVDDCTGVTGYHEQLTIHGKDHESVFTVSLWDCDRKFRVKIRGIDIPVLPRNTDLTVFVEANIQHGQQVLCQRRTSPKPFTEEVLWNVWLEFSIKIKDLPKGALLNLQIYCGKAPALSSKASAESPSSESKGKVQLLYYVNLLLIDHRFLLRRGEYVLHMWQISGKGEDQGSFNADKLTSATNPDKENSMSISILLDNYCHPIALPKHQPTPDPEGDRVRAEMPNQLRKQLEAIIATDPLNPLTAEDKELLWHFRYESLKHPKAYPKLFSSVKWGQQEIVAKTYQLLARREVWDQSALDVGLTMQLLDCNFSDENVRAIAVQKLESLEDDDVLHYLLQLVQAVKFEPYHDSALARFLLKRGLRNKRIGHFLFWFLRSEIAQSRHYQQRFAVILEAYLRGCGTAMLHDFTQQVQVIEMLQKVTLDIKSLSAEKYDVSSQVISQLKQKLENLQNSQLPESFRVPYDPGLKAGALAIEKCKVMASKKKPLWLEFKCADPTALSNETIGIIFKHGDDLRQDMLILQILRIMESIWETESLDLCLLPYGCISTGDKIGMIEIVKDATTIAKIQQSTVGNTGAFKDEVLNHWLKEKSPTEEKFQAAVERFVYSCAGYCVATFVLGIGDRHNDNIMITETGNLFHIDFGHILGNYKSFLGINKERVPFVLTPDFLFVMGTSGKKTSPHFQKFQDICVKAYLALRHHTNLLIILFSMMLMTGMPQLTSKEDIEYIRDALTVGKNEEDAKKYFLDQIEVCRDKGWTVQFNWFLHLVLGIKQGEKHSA
Sequence of PI3Kα (P42336 whole entry): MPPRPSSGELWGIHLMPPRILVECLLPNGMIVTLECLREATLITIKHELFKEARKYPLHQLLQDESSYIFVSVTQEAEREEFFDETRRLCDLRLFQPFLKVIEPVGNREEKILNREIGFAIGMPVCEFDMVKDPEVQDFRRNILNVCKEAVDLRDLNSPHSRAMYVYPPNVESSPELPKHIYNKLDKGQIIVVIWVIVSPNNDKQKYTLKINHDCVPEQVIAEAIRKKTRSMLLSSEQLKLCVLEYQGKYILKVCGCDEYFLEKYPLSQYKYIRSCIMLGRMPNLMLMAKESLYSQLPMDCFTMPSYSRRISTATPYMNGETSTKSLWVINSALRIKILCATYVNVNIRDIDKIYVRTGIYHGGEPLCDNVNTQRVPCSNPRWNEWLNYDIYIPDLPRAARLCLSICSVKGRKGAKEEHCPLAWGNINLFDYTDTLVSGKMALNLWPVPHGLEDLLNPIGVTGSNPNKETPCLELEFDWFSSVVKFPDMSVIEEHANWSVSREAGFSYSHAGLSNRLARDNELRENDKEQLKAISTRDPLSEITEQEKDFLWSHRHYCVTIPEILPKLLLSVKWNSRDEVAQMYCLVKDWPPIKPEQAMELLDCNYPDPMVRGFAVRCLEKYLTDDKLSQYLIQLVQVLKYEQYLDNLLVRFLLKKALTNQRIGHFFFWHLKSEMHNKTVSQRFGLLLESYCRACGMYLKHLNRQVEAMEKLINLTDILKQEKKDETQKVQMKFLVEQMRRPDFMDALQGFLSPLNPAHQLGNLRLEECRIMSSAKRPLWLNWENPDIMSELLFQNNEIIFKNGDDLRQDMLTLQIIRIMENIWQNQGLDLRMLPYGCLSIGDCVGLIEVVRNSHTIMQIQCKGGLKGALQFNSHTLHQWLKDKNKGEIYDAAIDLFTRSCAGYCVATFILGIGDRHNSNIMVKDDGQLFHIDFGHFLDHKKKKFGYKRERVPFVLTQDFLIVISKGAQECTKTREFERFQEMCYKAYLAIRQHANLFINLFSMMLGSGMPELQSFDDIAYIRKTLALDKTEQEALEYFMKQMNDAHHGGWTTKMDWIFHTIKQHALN
Sequence of PI3Kα (P27986 whole entry partner): as the sequence (P27986 whole entry partner) above

Structure (SMILES) | IC50 (HDAC6) [nM] | IC50 (PI3Kδ) [nM] | further results
CC[C@H](Nc1nc(N)nc(C)c1C#N)c1nc2cccc(N(C)Cc3ccc(C(=O)NO)cc3)c2c(=O)n1-c1ccccc1 [LI, (S)-4-(((2-(1-((2-amino-5-cyano-6-methylpyrimidin-4-yl)amino)propyl)-4-oxo-3-phenyl-3,4-dihydroquinazolin-5-yl)(methyl)amino)methyl)-N-hydroxybenzamide] | < 100 | < 100 | 
CC[C@H](Nc1ncnc(N)c1C(N)=O)c1nc2cccc(NCc3ccc(C(=O)NO)cn3)c2c(=O)n1-c1ccccc1 [LVII, (S)-4-amino-6-((1-(5-(((5-(hydroxycarbamoyl)pyridin-2-yl)methyl)amino)-4-oxo-3-phenyl-3,4-dihydroquinazolin-2-yl)propyl)amino)pyrimidine-5-carboxamide] | < 100 | > 100 | 
CC[C@H](Nc1ncnc2[nH]cnc12)c1nc2cccc(-c3cnc(C(=O)NO)nc3)c2c(=O)n1-c1ccccc1 [XXII, (S)-5-(2-(1-((9H-purin-6-yl)amino)propyl)-4-oxo-3-phenyl-3,4-dihydroquinazolin-5-yl)-N-hydroxypyrimidine-2-carboxamide] |  |  | inhibition at 1 µM (HDAC6): < 90%; inhibition at 1 µM (PI3Kγ): < 85%; inhibition at 1 µM (PI3Kα): < 85%; inhibition at 1 µM (PI3Kδ): > 90%; inhibition at 1 µM (PI3Kβ): < 85%
CC[C@H](Nc1ncnc2[nH]cnc12)c1nc2cccc(CC(=O)c3ccc(C(=O)Nc4ccccc4N)cc3)c2c(=O)n1-c1ccccc1 [XXIII, (S)-4-(2-(2-(1-((9H-purin-6-yl)amino)propyl)-4-oxo-3-phenyl-3,4-dihydroquinazolin-5-yl)acetyl)-N-(2-aminophenyl)benzamide] |  |  | inhibition at 1 µM (HDAC6): < 90%; inhibition at 1 µM (PI3Kγ): < 85%; inhibition at 1 µM (PI3Kα): < 85%; inhibition at 1 µM (PI3Kδ): > 90%; inhibition at 1 µM (PI3Kβ): < 85%
CC[C@H](Nc1ncnc2[nH]cnc12)c1nc2cccc(NCc3ccc(C(=O)N(C)O)cc3)c2c(=O)n1-c1ccccc1 [XXVII, (S)-4-(((2-(1-((9H-purin-6-yl)amino)propyl)-4-oxo-3-phenyl-3,4-dihydroquinazolin-5-yl)amino)methyl)-N-hydroxy-N-methylbenzamide] | > 100 |  | 
CC[C@H](Nc1ncnc2[nH]cnc12)c1nc(NCCCCCC(=O)NO)c2ccccc2n1 [XXXI, (S)-6-((2-(1-((9H-purin-6-yl)amino)propyl)quinazolin-4-yl)amino)-N-hydroxyhexanamide] | < 100 | > 100 | 

The next lines start with results.

IC50 (HDAC6) [nM] | IC50 (PI3Kδ) [nM] | Structure (SMILES) | further results
< 100 | < 100 | CC[C@H](Nc1nc(N)nc(C)c1C#N)c1nc2cccc(N3CCC(CCC(=O)NO)CC3)c2c(=O)n1-c1ccccc1 [Compound L, (S)-3-(1-(2-(1-((2-amino-5-cyano-6-methylpyrimidin-4-yl)amino)propyl)-4-oxo-3-phenyl-3,4-dihydroquinazolin-5-yl)piperidin-4-yl)-N-hydroxypropanamide] | 
 | < 100 | CC[C@H](Nc1nc(N)nc(C)c1C#N)c1nc2cccc(C#CCCCC(=O)NO)c2c(=O)n1-c1ccccc1 [LVI, (S)-6-(2-(1-((2-amino-5-cyano-6-methylpyrimidin-4-yl)amino)propyl)-4-oxo-3-phenyl-3,4-dihydroquinazolin-5-yl)-N-hydroxyhex-5-ynamide] | inhibition at 1 µM (HDAC6): > 90%
< 100 |  | O=C(NO)c1ccc(CNc2cccc3nc(C4CC4)n(-c4ccccc4)c(=O)c23)cc1 [LXI, 4-(((2-cyclopropyl-4-oxo-3-phenyl-3,4-dihydroquinazolin-5-yl)amino)methyl)-N-hydroxybenzamide] | 
> 100 |  | Cc1nc2cccc(NCCCCC(=O)NO)c2c(=O)n1-c1ccccc1 [LXII, N-hydroxy-5-((2-methyl-4-oxo-3-phenyl-3,4-dihydroquinazolin-5-yl)amino)pentanamide] | 
> 100 |  | O=C(CCCCNc1cccc2nc(C3CC3)n(-c3ccccc3)c(=O)c12)NO [LXIII, 5-((2-cyclopropyl-4-oxo-3-phenyl-3,4-dihydroquinazolin-5-yl)amino)-N-hydroxypentanamide] | 
